In PubChem BioAssay AID256 (DTP/NCI, 2004):
Several values for one entry are separate records, joined by “and”; a condition that tells them apart may be missing. Equal entries are not always repeated. Inconclusive results and toxic doses are left out.

Test system: CD2F1 mice, L1210 leukemia ip, survival T/C
Test: NCI In Vivo Anticancer Drug Screen. Data for tumor model L1210 Leukemia (intraperitoneal) in CD2F1 (CDF1) mice
Settings: higher = longer survival
Summary of the method: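 Transplantable tumor in mice; compound-treated vs vehicle-treated groups. Read-out = treated/control ratio of the measured endpoint.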

[1] = endpoint: mean survival time, dose: 25.0 mg/kg/injection, schedule: Q04DX003 (ip), vehicle: saline
[2] = endpoint: mean survival time, dose: 50.0 mg/kg/injection, schedule: Q04DX003 (ip), vehicle: saline
[3] = endpoint: mean survival time, dose: 100.0 mg/kg/injection, schedule: Q04DX003 (ip), vehicle: saline with Tween-80
[4] = endpoint: mean survival time, dose: 200.0 mg/kg/injection, schedule: Q04DX003 (ip), vehicle: saline with Tween-80
[5] = endpoint: mean survival time, dose: 100.0 mg/kg/injection, schedule: Q04DX002 (ip), vehicle: saline with Tween-80
[6] = endpoint: mean survival time, dose: 200.0 mg/kg/injection, schedule: Q04DX002 (ip), vehicle: saline with Tween-80
[7] = endpoint: mean survival time, dose: 100.0 mg/kg/injection, schedule: Q01DX009 (ip), vehicle: saline with Tween-80
[8] = endpoint: mean survival time, dose: 200.0 mg/kg/injection, schedule: Q01DX009 (ip), vehicle: saline with Tween-80
[9] = endpoint: mean survival time, dose: 400.0 mg/kg/injection, schedule: Q01DX009 (ip), vehicle: saline with Tween-80
[10] = endpoint: mean survival time, dose: 100.0 mg/kg/injection, schedule: Q01DX001 (ip), vehicle: saline with Tween-80
[11] = endpoint: mean survival time, dose: 200.0 mg/kg/injection, schedule: Q01DX001 (ip), vehicle: saline with Tween-80
[12] = endpoint: mean survival time, dose: 400.0 mg/kg/injection, schedule: Q01DX001 (ip), vehicle: saline with Tween-80

## [N-]=[N+]=CC(=O)CCC(N)C(=O)O (configuration not stated)
endpoint: mean survival time, dose: 0.03 mg/kg/injection, schedule: Q01DX009 (ip), vehicle: saline
  T/C: 119 % of control
endpoint: mean survival time, dose: 0.05 mg/kg/injection, schedule: Q01DX009 (ip), vehicle: saline
  T/C: 116 % of control
endpoint: mean survival time, dose: 0.05 mg/kg/injection, schedule: Q01DX009 (oral), vehicle: saline
  T/C: 107 % of control
endpoint: mean survival time, dose: 0.05 mg/kg/injection, schedule: Q01DX009 (sc), vehicle: saline
  T/C: 117 % of control
endpoint: mean survival time, dose: 0.1 mg/kg/injection, schedule: Q03DX003 (ip), vehicle: saline
  T/C: 115 % of control
endpoint: mean survival time, dose: 0.1 mg/kg/injection, schedule: Q04DX003 (ip), vehicle: saline
  T/C: 117 % of control
endpoint: mean survival time, dose: 0.2 mg/kg/injection, schedule: Q01DX009 (oral), vehicle: saline
  T/C: 116 % of control
endpoint: mean survival time, dose: 0.2 mg/kg/injection, schedule: Q03DX003 (ip), vehicle: saline
  T/C: 118 % of control
endpoint: mean survival time, dose: 0.2 mg/kg/injection, schedule: Q04DX003 (ip), vehicle: saline
  T/C: 123 % of control
endpoint: mean survival time, dose: 0.4 mg/kg/injection, schedule: Q03HX024 (ip), vehicle: saline
  T/C: 162 % of control
endpoint: mean survival time, dose: 0.8 mg/kg/injection, schedule: Q01DX009 (sc), vehicle: saline
  T/C: 90 % of control
endpoint: mean survival time, dose: 0.8 mg/kg/injection, schedule: Q03HX024 (ip), vehicle: saline
  T/C: 102 % of control
endpoint: mean survival time, dose: 1.6 mg/kg/injection, schedule: Q03HX024 (ip), vehicle: saline
  T/C: 105 % of control
endpoint: mean survival time, dose: 3.1 mg/kg/injection, schedule: Q03HX016 (ip), vehicle: saline
  T/C: 119 % of control
endpoint: mean survival time, dose: 6.25 mg/kg/injection, schedule: Q03HX008 (ip), vehicle: saline
  T/C: 118 % of control
endpoint: mean survival time, dose: 6.25 mg/kg/injection, schedule: Q04DX003 (ip), vehicle: saline
  T/C: 156 % of control
[1]
  T/C: 155 % of control
endpoint: mean survival time, dose: 25.0 mg/kg/injection, schedule: Q08DX002 (ip), vehicle: saline
  T/C: 150 % of control
endpoint: mean survival time, dose: 50.0 mg/kg/injection, schedule: Q01DX001 (ip), vehicle: saline
  T/C: 151 % of control
[2]
  T/C: 122 % of control
endpoint: mean survival time, dose: 50.0 mg/kg/injection, schedule: Q08DX002 (ip), vehicle: saline
  T/C: 162 % of control
endpoint: mean survival time, dose: 100.0 mg/kg/injection, schedule: Q01DX001 (ip), vehicle: saline
  T/C: 151 % of control
endpoint: mean survival time, dose: 100.0 mg/kg/injection, schedule: Q01DX001 (oral), vehicle: saline
  T/C: 115 % of control
endpoint: mean survival time, dose: 100.0 mg/kg/injection, schedule: Q08DX002 (ip), vehicle: saline
  T/C: 155 % of control
endpoint: mean survival time, dose: 200.0 mg/kg/injection, schedule: Q01DX001 (oral), vehicle: saline
  T/C: 88 % of control
endpoint: mean survival time, dose: 200.0 mg/kg/injection, schedule: Q01DX001 (sc), vehicle: saline
  T/C: 110 % of control
endpoint: mean survival time, dose: 13.0 micrograms/kg/injection, schedule: Q01DX Z (ip), vehicle: saline
  T/C: 96 % of control
endpoint: mean survival time, dose: 25.0 micrograms/kg/injection, schedule: Q01DX Z (ip), vehicle: saline
  T/C: 94 % of control
endpoint: mean survival time, dose: 50.0 micrograms/kg/injection, schedule: Q01DX Z (ip), vehicle: saline
  T/C: 100 % of control
endpoint: mean survival time, dose: 93.7 micrograms/kg/injection, schedule: Q01DX009 (ip), vehicle: saline
  T/C: 124 % of control
endpoint: median survival time, dose: 0.06 mg/kg/injection, schedule: Q01DX009 (ip), vehicle: saline
  T/C: 119 % of control
endpoint: median survival time, dose: 0.25 mg/kg/injection, schedule: Q01DX009 (ip), vehicle: saline
  T/C: 118 % of control
endpoint: median survival time, dose: 0.39 mg/kg/injection, schedule: Q01DX009 (ip), vehicle: saline
  T/C: 98 % of control
endpoint: median survival time, dose: 0.5 mg/kg/injection, schedule: Q01DX009 (ip), vehicle: saline
  T/C: 102 % of control
endpoint: median survival time, dose: 0.8 mg/kg/injection, schedule: Q01DX009 (ip), vehicle: saline
  T/C: 94 % of control and 98 % of control
endpoint: median survival time, dose: 2.5 mg/kg/injection, schedule: Q04DX003 (ip), vehicle: saline
  T/C: 152 % of control
endpoint: median survival time, dose: 5.0 mg/kg/injection, schedule: Q04DX003 (ip), vehicle: saline
  T/C: 153 % of control and 163 % of control
endpoint: median survival time, dose: 10.0 mg/kg/injection, schedule: Q04DX003 (ip), vehicle: saline
  T/C: 167 % of control and 173 % of control
endpoint: median survival time, dose: 20.0 mg/kg/injection, schedule: Q04DX003 (ip), vehicle: saline
  T/C: 184 % of control and 189 % of control
endpoint: median survival time, dose: 40.0 mg/kg/injection, schedule: Q04DX003 (ip), vehicle: saline
  T/C: 195 % of control and 205 % of control
endpoint: median survival time, dose: 100.0 mg/kg/injection, schedule: Q01DX001 (ip), vehicle: saline
  T/C: 114 % of control

## CC(=O)OC1CCCC2=CC(=O)CCC21C (configuration not stated)
[3]
  T/C: 96 % of control
[4]
  T/C: 92 % of control

## CCCCCCCC(=O)NC1CCC(C(C)(C)C)CC1 (configuration not stated)
endpoint: mean survival time, dose: 100.0 mg/kg/injection, schedule: Q04DX003 (ip), vehicle: other
  T/C: 93 % of control
endpoint: mean survival time, dose: 200.0 mg/kg/injection, schedule: Q04DX003 (ip), vehicle: other
  T/C: 94 % of control
endpoint: mean survival time, dose: 400.0 mg/kg/injection, schedule: Q04DX003 (ip), vehicle: other
  T/C: 89 % of control

## CC1=C2C3OC(=O)C(C)C3CCC2(C)C=CC1=O (configuration not stated)
[5]
  T/C: 116 % of control
[6]
  T/C: 116 % of control

## NS(=O)(=O)c1ccc(NC(=S)NC(=O)c2cccc3ccccc23)cc1
[7]
  T/C: 93 % of control
[8]
  T/C: 93 % of control
[9]
  T/C: 93 % of control

## C[N+](C)(C)C.N=C=O.N=C=O.N=C=O.N=C=O.[Co+2]
endpoint: mean survival time, dose: 10.0 mg/kg/injection, schedule: Q01DX009 (ip), vehicle: saline
  T/C: 98 % of control

## CCCCCCCCCCCCCC1CCCC(C)N1 (configuration not stated)
endpoint: mean survival time, dose: 50.0 mg/kg/injection, schedule: Q04DX002 (ip), vehicle: saline with Tween-80
  T/C: 89 % of control and 94 % of control
[5]
  T/C: 93 % of control and 94 % of control
[6]
  T/C: 101 % of control

## N#CC(/C=C/c1ccccc1)Nc1ccccc1 (configuration not stated)
[7]
  T/C: 89 % of control
endpoint: mean survival time, dose: 100.0 mg/kg/injection, schedule: Q04DX003 (ip), vehicle: saline sonified
  T/C: 100 % of control
[8]
  T/C: 90 % of control
endpoint: mean survival time, dose: 200.0 mg/kg/injection, schedule: Q04DX003 (ip), vehicle: saline sonified
  T/C: 97 % of control
[9]
  T/C: 89 % of control
endpoint: mean survival time, dose: 400.0 mg/kg/injection, schedule: Q04DX003 (ip), vehicle: saline sonified
  T/C: 96 % of control

## COc1cc(CC(=O)NO)cc(OC)c1OC
[5]
  T/C: 88 % of control
[6]
  T/C: 88 % of control

## Cc1ccc(S(=O)(=O)NC(=S)c2ccccc2)cc1
[10]
  T/C: 97 % of control
[11]
  T/C: 105 % of control

## CN(C)C/C(=N\Oc1ccc([N+](=O)[O-])cc1[N+](=O)[O-])c1ccc(Cl)cc1
endpoint: mean survival time, dose: 50.0 mg/kg/injection, schedule: Q01DX009 (ip), vehicle: saline with Tween-80
  T/C: 91 % of control
[10]
  T/C: 98 % of control
[7]
  T/C: 88 % of control
[11]
  T/C: 102 % of control
[8]
  T/C: 91 % of control
[12]
  T/C: 95 % of control

## COC(=O)COS(=O)(=O)c1ccc(C)cc1
[10]
  T/C: 95 % of control
[11]
  T/C: 96 % of control
[12]
  T/C: 100 % of control

## Nc1ncnc2c1nc(Cl)n2C1OC2COP(=O)(O)OC2C1O (configuration not stated)
endpoint: mean survival time, dose: 12.5 mg/kg/injection, schedule: Q01DX005 (ip), vehicle: water
  T/C: 96 % of control
endpoint: mean survival time, dose: 25.0 mg/kg/injection, schedule: Q01DX005 (ip), vehicle: water
  T/C: 100 % of control
endpoint: mean survival time, dose: 50.0 mg/kg/injection, schedule: Q01DX005 (ip), vehicle: water
  T/C: 100 % of control

## Cc1nc([N+](=O)[O-])c(Br)n1C
[3]
  T/C: 103 % of control
[4]
  T/C: 108 % of control
endpoint: mean survival time, dose: 400.0 mg/kg/injection, schedule: Q04DX003 (ip), vehicle: saline with Tween-80
  T/C: 94 % of control

## O=C(O)CCC(=O)Nc1ccccc1C(=O)O
[7]
  T/C: 102 % of control
[8]
  T/C: 93 % of control
[9]
  T/C: 96 % of control

## Cc1cccc[n+]1CC(=O)c1ccccc1
[1]
  T/C: 104 % of control
[2]
  T/C: 96 % of control
endpoint: mean survival time, dose: 100.0 mg/kg/injection, schedule: Q04DX003 (ip), vehicle: saline
  T/C: 96 % of control

## Cc1ccccc1N(CC1CO1)CC1CO1 (configuration not stated)
endpoint: mean survival time, dose: 12.5 mg/kg/injection, schedule: Q01DX009 (ip), vehicle: saline
  T/C: 115 % of control and 104 % of control
endpoint: mean survival time, dose: 25.0 mg/kg/injection, schedule: Q01DX009 (ip), vehicle: saline
  T/C: 98 % of control and 106 % of control
endpoint: mean survival time, dose: 50.0 mg/kg/injection, schedule: Q01DX009 (ip), vehicle: saline
  T/C: 100 % of control and 111 % of control
endpoint: mean survival time, dose: 100.0 mg/kg/injection, schedule: Q01DX009 (ip), vehicle: saline
  T/C: 100 % of control and 106 % of control
endpoint: mean survival time, dose: 200.0 mg/kg/injection, schedule: Q01DX009 (ip), vehicle: saline
  T/C: 101 % of control and 108 % of control
endpoint: mean survival time, dose: 400.0 mg/kg/injection, schedule: Q01DX009 (ip), vehicle: saline
  T/C: 100 % of control and 106 % of control
